Source: patent publication US10525115B2 (Immatics Biotechnologies GmbH, priority 2014, dated 2020)
One block for each substance: values may come before it.

What was measured:
[1] = tested on: MHC class I; assay: MHC class I binding assay (UV-exchange, β2m ELISA); design: species or system human; conditions: yield of UV-exchange reaction
Procedure: Candidate peptides for T cell based therapies according to the present invention were further tested for their MHC binding capacity (affinity). The individual peptide-MHC complexes were produced by exchange with the peptide of interest as analyzed. Only peptide candidates that can effectively bind and stabilize the peptide-receptive MHC molecules prevent dissociation of the MHC complexes. To determine the yield of the exchange reaction, an ELISA was performed based on the detection of the light chain (β2m) of stabilized MHC complexes. The assay was performed as generally described in Rodenko et al. (Rodenko, B. et al., Nat Protoc. 1 (2006): 1120-1132).
96 well MAXISorp plates (NUNC) were coated over night with 2 ug/ml streptavidin in PBS at room temperature, washed 4× and blocked for 1 h at 37° C. in 2% BSA containing blocking buffer. Refolded HLA-A*0201/MLA-001 monomers served as standards, covering the range of 15-500 ng/ml. Peptide-MHC monomers of the UV-exchange reaction were diluted 100 fold in blocking buffer. Samples were incubated for 1 h at 37° C., washed four times, incubated with 2 μg/ml HRP conjugated anti-β2m for 1 h at 37° C., washed again and detected with TMB solution that is stopped with […]. Absorption was measured at 450 nm. Candidate peptides that show a high exchange yield (preferably higher than 50%, most preferred higher than 75%) are generally preferred for a generation and production of antibodies or fragments thereof, and/or T cell receptors or fragments thereof, as they show sufficient avidity to the MHC molecules and prevent dissociation of the MHC complexes.
MHC class I binding scores for the peptides as tested were; <20%=+; 20%-49%=++; 50%−75%=+++; >=75%=++++

[2] = tested on: HLA-DR haplotypes; assay: REVEAL MHC-peptide binding assay, panel of seven HLA-DR haplotypes; design: species or system human; conditions: for number of formed HLA-peptide complexes stable for at least 24 h: of 5 formed complexes, 37° C.; for number of HLA-DR haplotypes with considerable binding capacity / number of HLA-DR haplotypes with which a complex was formed: of 7 investigated HLA-DR haplotypes
Procedure: (§1) The promiscuous binding of GALNT7-001 and ERGIC1-001 to various HLA-DR haplotypes and the stability of the formed complexes was assessed in an in vitro binding assay.
(§2) The seven investigated HLA-DR haplotypes are selected according to their frequencies in HLA-A*02- and HLA-A*24-positive North American populations. Data are derived from the analysis of 1.35 million HLA-typed volunteers registered in the National Marrow Donor Program (Mori M, Beatty P G, Graves M, Boucher K M, Milford E L (1997). HLA gene and haplotype frequencies in the North American population: the National Marrow Donor Program Donor Registry. Transplantation 64, 1017-1027). The analyzed population was subdivided in the following ethnic groups: Caucasian Americans (N=997,193), African Americans (N=110,057), Asian Americans (N=81,139), Latin Americans (N=100,128), and Native Americans (N=19,203).
(§3) The MHC-peptide binding assay as used determined the ability of each candidate peptide to bind to the selected HLA class II haplotype and stabilize the HLA-peptide complex. For this, the candidate peptides are assembled in vitro with a particular HLA class II protein.
(§4) The binding capacity of a candidate peptide to a particular HLA molecule is compared to a reference peptide with known very strong binding properties (positive control) for each HLA haplotype. Experimental standard errors derive from binding experiments of triplicated positive controls.
(§5) Besides the affinity of a peptide to a particular HLA molecule, the enduring stability of the formed HLA-peptide complex is crucial for the occurrence of an immune response. For this reason the presence of the formed HLA-peptide complex is measured after its incubation for 24 h at 37° C. The stability of the formed MHC-peptide complex is calculated as a ratio of the binding scores at 24 h and the binding scores which are received right after the refolding (accordingly at time 0) in percent.

[3] = tested on: HLA-DR5; assay: REVEAL MHC-peptide binding assay; design: species or system human; conditions: for binding / complex formation: HLA-DR5; for stability of the formed HLA-peptide complex: HLA-DR5, after 24 h at 37° C.
Procedure: as §1, §2, §3, §4, §5

[4] = tested on: HLA-DR6; assay: REVEAL MHC-peptide binding assay; design: species or system human
Procedure: as §1, §2, §3, §4, §5

[5] = tested on: HLA-DR1; assay: REVEAL MHC-peptide binding assay; design: species or system human; conditions: for binding / complex formation: HLA-DR1; for stability of the formed HLA-peptide complex: HLA-DR1, after 24 h at 37° C.
Procedure: as §1, §2, §3, §4, §5

[6] = tested on: HLA-DR3; assay: REVEAL MHC-peptide binding assay; design: species or system human
Procedure: as §1, §2, §3, §4, §5

[7] = tested on: HLA-DR4; assay: REVEAL MHC-peptide binding assay; design: species or system human; conditions: for binding / complex formation: HLA-DR4; for stability of the formed HLA-peptide complex: HLA-DR4, after 24 h at 37° C.; for binding score: HLA-DR4, compared to the positive control, over 15% = strong binding
Procedure: as §1, §2, §3, §4, §5

[8] = tested on: HLA-DR7; assay: REVEAL MHC-peptide binding assay; design: species or system human; conditions: for binding / complex formation: HLA-DR7; for stability of the formed HLA-peptide complex: HLA-DR7, after 24 h at 37° C.
Procedure: as §1, §2, §3, §4, §5

[9] = biological target: HLA-DR2 (Homo sapiens, UniProt P01903+P01911); assay: REVEAL MHC-peptide binding assay; conditions: for binding / complex formation: HLA-DR2
Sequence of HLA-DR2 (P01903 26-216 limits assumed): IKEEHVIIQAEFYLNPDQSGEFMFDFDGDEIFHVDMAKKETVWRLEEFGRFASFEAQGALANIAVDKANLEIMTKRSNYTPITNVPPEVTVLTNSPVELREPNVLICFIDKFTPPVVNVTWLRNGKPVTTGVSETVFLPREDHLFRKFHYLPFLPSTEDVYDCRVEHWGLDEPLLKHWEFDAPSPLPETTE
Sequence of HLA-DR2 (P01911 30-227 limits assumed): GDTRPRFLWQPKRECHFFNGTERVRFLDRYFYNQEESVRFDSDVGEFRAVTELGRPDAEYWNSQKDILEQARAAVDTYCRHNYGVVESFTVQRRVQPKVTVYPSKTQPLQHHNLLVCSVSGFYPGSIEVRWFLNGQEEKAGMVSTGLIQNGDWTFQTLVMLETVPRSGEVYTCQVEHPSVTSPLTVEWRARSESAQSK
Procedure: as §1, §2, §3, §4, §5

[10] = tested on: AML patient PBMC; assay: 12-day recall IFN-γ ELISPOT assay, HLA class II LiTAPs, AML patient PBMC; format: cell-based, human; conditions: HLA class II peptide
Procedure: (§6) PBMC from AML patients and healthy volunteers were cultured in RPMI1640 medium (Gibco) supplemented with 10% pooled human serum (PHS, produced in-house), […] β-mercaptoethanol (Roth, Karlsruhe, Germany) and 1% penicillin/streptomycin (GE). For CD8^+ T cell stimulation, PBMC were thawed and pulsed with 1 μg/ml per peptide. Peptide-pulsed PBMC (5-6×10^6 cells/ml) were cultured at 37° C. and 5% CO2 for 12 days. On day 0 and day 1, 5 ng/ml IL-4 (R&D Systems, Minneapolis, Minn., USA) and 5 ng/ml IL-7 (Promokine, Heidelberg, Germany) were added to the culture medium. On days 3, 5, 7 and 9, 2 ng/ml IL-2 (R&D Systems) were added to the culture medium. Peptide-stimulated PBMC were functionally characterized by ELISPOT assays on day 12 and by intracellular cytokine staining on day 13 respectively. For CD4^+ T-cell stimulation, culture was performed as described for CD8^+ T cells with 2 modifications: pulsing was carried out with 10 μg/ml of HLA class II peptide and no IL-4 and IL-7 was added.
(§7) IFN-γ ELISPOT assays were carried out as described previously (Widenmeyer M, Griesemann H, Stevanovic S, Feyerabend S, Klein R, Attig S, et al. Promiscuous survivin peptide induces robust CD4+ T-cell responses in the majority of vaccinated cancer patients. Int J Cancer. 2012 Jul. 1; 131(1):140-9). In brief, 96-well nitrocellulose plates (Millipore) were coated with 1 mg/ml IFN-γ mAb (Mabtech, Cincinnati, Ohio, USA) and incubated over night at 4° C. Plates were blocked with 10% PHS for 2 h at 37° C. 5×10^5 cells/well of pre-stimulated PBMC were pulsed with 1 μg/ml (HLA class I) or 2.5 μg/ml (HLA class II) peptide and incubated for 24-26 h. Readout was performed according to manufacturer's instructions. Spots were counted using an ImmunoSpot S5 analyzer (CTL, Shaker Heights, Ohio, USA). T cell responses were considered to be positive when >15 spots/well were counted and the mean spot count per well was at least 3-fold higher than the mean number of spots in the negative control wells (according to the cancer immunoguiding program (CIP) guidelines).

[11] = tested on: healthy donor PBMC; assay: Cross-checking IFN-γ ELISPOT assay, HLA class II LiTAPs, healthy donor PBMC; format: cell-based, human; conditions: HLA class II peptide
Procedure: as §6, §7

Peptide exchange (MHC class I binding score) [1]: ++++ (>=75%=++++)
Substance: 251 (VLGGKAFLEHL; listed as Homo sapiens) [compound 251]

number of formed HLA-peptide complexes stable for at least 24 h [2]: 4
number of HLA-DR haplotypes with considerable binding capacity [2]: at least 4
number of HLA-DR haplotypes with which a complex was formed [2]: 5
binding / complex formation [3]: form a complex
stability of the formed HLA-peptide complex [3]: stable
binding / complex formation [4]: did not bind
binding / complex formation [5]: form a complex
stability of the formed HLA-peptide complex [5]: stable
binding score ([5]; HLA-DR1, compared to the positive control, over 15% = strong binding): over 15%
binding / complex formation [6]: did not bind
binding / complex formation [7]: form a complex
stability of the formed HLA-peptide complex [7]: stable
binding score [7]: over 15%
binding / complex formation [8]: form a complex
stability of the formed HLA-peptide complex [8]: stable
binding score ([8]; HLA-DR7, compared to the positive control, over 15% = strong binding): over 15%
binding / complex formation [9]: form a complex
binding score ([9]; HLA-DR2, compared to the positive control, over 15% = strong binding): over 15%
Substance: GNQLFRINEANQLMQ (listed as Homo sapiens) [SEQ ID NO 597]

Substance: TEGQFVDLTGNRLTYT (listed as Homo sapiens) [SEQ ID NO 544]
T cell responses (IFN-γ ELISPOT), share of AML patients [10]: 13.3%
T cell responses (IFN-γ ELISPOT) in AML patients (positive/tested) ([10]; listed as P[[I]]II3): significant increase in IFN-γ production
T cell responses (IFN-γ ELISPOT) in AML patients (positive/tested) ([10]; listed as P^II3): 2/15
IFN-γ secretion in ELISPOT, healthy donor PBMC (positive/tested) [11]: 0/8

Peptide exchange (MHC class I binding score) [1]: ++++ (>=75%=++++)
Substance: 36 (SLLYKVPYV; listed as Homo sapiens) [compound 36]

Peptide exchange (MHC class I binding score) [1]: ++++ (>=75%=++++)
Substance: 266 (KLQEQLAQL; listed as Homo sapiens) [compound 266]

Substance: HRSFVDLSGHNLANPHP (listed as Homo sapiens) [SEQ ID NO 478]
T cell responses (IFN-γ ELISPOT), share of AML patients [10]: 26.7%
T cell responses (IFN-γ ELISPOT) in AML patients (positive/tested) ([10]; listed as PII1): significant increase in IFN-γ production
T cell responses (IFN-γ ELISPOT) in AML patients (positive/tested) ([10]; listed as P^II1): 4/15
IFN-γ secretion in ELISPOT, healthy donor PBMC (positive/tested) [11]: 0/8

Peptide exchange (MHC class I binding score) [1]: ++++ (>=75%=++++)
Substance: 54 (AVIEAEKIAQV; listed as Homo sapiens) [compound 54]

Substance: SPNIVIALSGNKADLA (listed as Homo sapiens) [SEQ ID NO 558]
T cell responses (IFN-γ ELISPOT), share of AML patients [10]: 20.0%
T cell responses (IFN-γ ELISPOT) in AML patients (positive/tested) ([10]; listed as P[[I]]II2): significant increase in IFN-γ production
T cell responses (IFN-γ ELISPOT) in AML patients (positive/tested) ([10]; listed as P^II2): 3/15
IFN-γ secretion in ELISPOT, healthy donor PBMC (positive/tested) [11]: 0/8

number of formed HLA-peptide complexes stable for at least 24 h [2]: 4
number of HLA-DR haplotypes with considerable binding capacity [2]: at least 2
number of HLA-DR haplotypes with which a complex was formed [2]: 5
binding / complex formation [3]: form a complex
stability of the formed HLA-peptide complex [3]: stable
binding score ([3]; HLA-DR5, compared to the positive control, over 15% = strong binding): ≥ 15%
binding / complex formation [4]: did not bind
binding / complex formation [5]: form a complex
stability of the formed HLA-peptide complex [5]: stable
binding / complex formation [6]: did not bind
binding / complex formation [7]: form a complex
stability of the formed HLA-peptide complex [7]: stable
binding score [7]: ≥ 15%
binding / complex formation [8]: form a complex
stability of the formed HLA-peptide complex [8]: stable
binding / complex formation [9]: form a complex
Substance: FEGQFSINKVPGNFHVS (listed as Homo sapiens) [SEQ ID NO 604]
